The values below come from patent publication US20230121245A1, “REGENERATIVE NONSTEROIDAL ANTI-INFLAMMATORY COMPOSITIONS, METHODS OF PRODUCTION, AND METHODS OF USE THEREOF” (CROWN SCIENTIFIC, L.L.C., priority 2021, published 2023).

For this experiment, the system named is TNFα. Put plainly: LPS induced TNFα response in PBMCs (monocyte/macrophage model). The class given is cell-based, human. As to conditions: 0.01-100 μM, compared to vehicle control (0.13% DMSO), 100 ng LPS, 24 hours. On the procedure: Fresh leukoreduction system (LRS) cones of healthy donors aged 18-80 years old were purchased from Oklahoma Blood Institute. PBMCs were isolated from LRS cones using EasySep™ Direct Human PBMC Isolation Kit (cat #19654, StemCell Technologies) as per manufacturer's specifications. 1.5 million PBMCs were seeded in 0.5 ml of RPMI (11835030, Gibco) supplemented with 5% HPL (Millcreek), lx Glutamax (35050061, Gibco), 1×NEAA (11140050, Gibco) and 2 U/ml heparin (25021040030, Sagent Pharmaceuticals) in a 24 well plate and rested overnight. The following day, PBMCs were co-stimulated with 100 ng of lipopolysaccharide (LPS, 00-4976-93, Invitrogen) and different doses RNSA in a volume of 0.5 ml. RNSA doses were prepared in saline (R5201-01, Braun) supplemented with 5% HPL and 2 U/ml heparin. Betamethasone (Cayman, 20363), a positive control, was resuspended in DMSO (D4540, Sigma) and administered to PBMCs at different doses to a final 0.13% DMSO concentration. Vehicle for RNSA was 50% saline and for Betamethasone 0.13% DMSO for a 1 ml reaction. All samples were tested in technical triplicates. Treatment duration was 24 hours for all groups. After 24 hours, the supernatant was collected, spun at 5,000 g for 10 minutes and the cell free supernatant stored at −80 C. To detect TNFα, hTNFα Simple Plex assay quantification was performed on ELLA ELISA based detection method (ProteinSimple).

For the compound `C[C@H]1C[C@H]2[C@@H]3CCC4=CC(=O)C=C[C@]4(C)[C@@]3(F)[C@@H](O)C[C@]2(C)[C@@]1(O)C(=O)CO` [Betamethasone], the “attenuation of TNFα response” value was 20-68%.
